The text below walks through data of PMC8058733, “A pain killer without analgesic tolerance designed by co-targeting PSD-95-nNOS interaction and α2-containning GABAARs” (Theranostics, 2021).

In experiment [1] the target is T1, PSD-95-nNOS complex (Rattus norvegicus, UniProt P29476).
T1 construct: dorsal spinal cord tissues (L4 and L5) were lysed in 400 μl RIPA; from tissue; host or cells: rat dorsal spinal cord (L4 and L5), SNL model
Put plainly: Co-IP of PSD-95-nNOS complex levels in the spinal dorsal horn after SNL. It counts as in vivo. Particulars: SNL rats, ZL006 10 mg/kg, i.v.

Experiment [2] relates to SNL-induced mechanical hyperalgesia. Put plainly: SNL-induced mechanical hyperalgesia, paw withdrawal threshold. Particulars: SNL rats, ZL006 0.2 mg/d intrathecal infusion × 11 days. The experiment is classed as in vivo, rat. Here is the method:
(§1) Neuropathic pain was induced by segmental spinal nerve ligation (SNL). Animals were anesthetized with isoflurane. After the loss of righting reflex, the animal was fixed in the prone position. The SNL model was prepared as described previously: a median skin incision with about 3-5 cm length in L4-S2 level of the mouse back was made, the muscles next to the vertebrae till the sixth lumbar protruding were separated, the L5/L6 joint protruding on the right side was exposed and excised, and L6 processus transversus was partially split so that the L4-L6 spinal nerves on the right side were exposed. L5 nerve was gently isolated and tightly ligated with 5-0 silk thread. The wound was closed with 4-0 silk thread suture and covered with iodine solution. After nerve ligation, animals with signs of paw clonus or autotomy were excluded from further experiments.
(§2) Osmotic minipumps (models 1004 for mouse and 2ML4 for rat; Alzet) and intrathecal cannulas (0.61 mm outer diameter and 0.28 mm inner diameter for mouse, 0.99 mm outer diameter and 0.58 mm inner diameter for rat) were filled with a solution of PBS. Cannulas were inserted into the subarachnoid space through the space between the L5 and L6 vertebrae and the tip of the catheter was implanted at the L5 spinal segmental level.
For rats, the threshold for 50% paw withdrawal (50% PWT) response to mechanical stimulus was assessed through a dynamic plantar apparatus (Ugo Basile, Italy). The 50% PWT refers to that the probability of paw withdrawal response to repeated mechanical stimulus is 50%. Rats were placed individually in a plastic cage (17 × 15 × 15 cm) with a wire mesh bottom which allowed full access to the paws. Behavioral accommodation was allowed for 15-20 min until cage exploration and major grooming activities ceased. A maximal cut-off of 50g/50s was set to prevent tissue damage. To record the PWT in response to mechanical stimulus, each rat was measured five times with a 5-min interval, and the mean value was recorded after excluding maximal and minimum values. The experimental procedures were performed in a double-blind manner.

The subject of experiment [3] is SNL-induced thermal hyperalgesia. Put plainly: SNL-induced thermal hyperalgesia, paw withdrawal latency (Hargreaves). The experiment is classed as in vivo, rat. Particulars: SNL rats, ZL006 0.2 mg/d intrathecal infusion × 11 days. Here is the method: as §1
Osmotic minipumps (models 1004 for mouse and 2ML4 for rat; Alzet) and intrathecal cannulas (0.61 mm outer diameter and 0.28 mm inner diameter for mouse, 0.99 mm outer diameter and 0.58 mm inner diameter for rat) were filled with a solution of PBS. […]
(§3) Paw withdrawal latency (PWL) response to thermal stimulus was assessed through the Hargreaves test. […] To record the PWL in response to thermal stimulus, each animal was measured five times with a 5-min interval, and the mean value was recorded after excluding maximal and minimum values. […]

The test system of experiment [4] is SNL-induced mechanical hyperalgesia. Put plainly: SNL-induced mechanical hyperalgesia, von Frey. Particulars: WT and nNOS-/- mice, ZL006 i.v., 20 mg/kg. The experiment is classed as in vivo, mice. Here is the method: as §1
For mice, the threshold for 50% PWT response to mechanical stimulus was quantified by assessing the paw withdrawal threshold using von Frey filaments (Touch-Test TM Sensory Evaluator, North coast Medical, Inc.). Mice were placed individually in a plastic cage (4.5 × 5 × 11 cm) with a wire mesh bottom which allowed full access to the paws. Behavioral accommodation was allowed for 20-30 min until cage exploration and major grooming activities ceased. Mechanical threshold was measured by applying a von Frey filament to the ventral surface of the right hind paw until a positive sign of pain behavior was elicited. The paradigm for assessing the threshold was as follows. Von Frey filaments with logarithmically incremental stiffness (0.02-2 g) were applied serially to the paw by the up-down method. The filaments were presented, in ascending order of strength, perpendicular to the plantar surface with sufficient force to causes light bending against the paw and held for 4s. A positive response was noted if the paw was sharply withdrawn. Flinching immediately upon removal of the hair was also considered a positive response. The 2-g filament was selected as the upper limit cut-off for testing. If there was no response at 2-g filament, animals were assigned this cut-off value. The pattern of positive and negative withdrawal responses was converted to 50% threshold according to the formula: 50% PWT = 10 log (X) + κδ. X = value (in log unit) of the final von Frey hair used; κ is correction factors based on the pattern of responses from the calibration table; δ = mean difference in log units between stimuli (here, 0.224).

Experiment [5] concerns SNL-induced thermal hyperalgesia. Put plainly: SNL-induced thermal hyperalgesia, paw withdrawal latency. Particulars: WT and nNOS-/- mice, ZL006 i.v., 20 mg/kg. The experiment is classed as in vivo, mice. Here is the method: as §1, with “The wound was closed with 4-0 silk thread suture and covered with iodine solution. After nerve ligation, animals with signs of paw clonus or autotomy were excluded from further experiments.” left out
as §3
(A) Time course of SNL-induced thermal hyperalgesia after treating with ZL006-05 (60 mg/kg, i.g.) in mice. Paw withdrawal latency response to thermal stimulation was detected at 0, 1, 2, 4, 6, 8, 10, 12 and 24 h after drug administration. ( B) Areas under the curve of paw withdrawal latency 0-24 h after treatment calculated from ( A) (F (1,16) = 43.07, ***p < 0.001, two-tailed t-test, n = 9). […]

The test system of experiment [6] is laminae I excitatory neurons in the SDH. Put plainly: mIPSCs/mEPSCs recordings from acute spinal slices of chronically treated rats. The experiment is classed as in vivo, rat. Particulars: SNL rats, ZL006 0.2 mg/d intrathecal × 11 days.
From the text: as §2
All solutions were bubbled with 95% O2 -5% CO2.
For mPSCs measurements, whole-cell recordings were made from putative excitatory neurons in superficial dorsal horn using low-resistance pipettes (4-8 MΩ). Before mPSCs measurements, excitatory neurons were distinguished from inhibitory neurons by firing pattern analysis according to the established relationship between neuronal firing pattern and its neurotransmitter phenotype, [32]-[34] For mEPSCs measurement, the membrane potential was held at -60 mV. […] Tetrodotoxin (0.5 μM) and bicuculline (20 μM) were added to block action potentials and GABAA receptor-mediated currents respectively. For mIPSCs measurement, the membrane potential was held at -70 mV, microelectrodes were filled with internal pipette solution containing CsCl 140, HEPES 10.0, MgATP 4.0, NaGTP 3.0, EGTA 1.0, MgCl2 1.0, CaCl2 0.3 (in mM). […]. […] Each recording lasts more than 5 min. Data were analyzed using Mini software. Up to 120 events from each neuron were selected at a fixed sampling interval to generate cumulative probability.

Experiment [7] concerns neuropathic pain. The arrangement: method as in PMID 32632774. Particulars: treatment of neuropathic pain, chronic use; cited from earlier work.

The structures appear in SMILES notation.

T1 sequence (P29476 whole entry, one chain of several): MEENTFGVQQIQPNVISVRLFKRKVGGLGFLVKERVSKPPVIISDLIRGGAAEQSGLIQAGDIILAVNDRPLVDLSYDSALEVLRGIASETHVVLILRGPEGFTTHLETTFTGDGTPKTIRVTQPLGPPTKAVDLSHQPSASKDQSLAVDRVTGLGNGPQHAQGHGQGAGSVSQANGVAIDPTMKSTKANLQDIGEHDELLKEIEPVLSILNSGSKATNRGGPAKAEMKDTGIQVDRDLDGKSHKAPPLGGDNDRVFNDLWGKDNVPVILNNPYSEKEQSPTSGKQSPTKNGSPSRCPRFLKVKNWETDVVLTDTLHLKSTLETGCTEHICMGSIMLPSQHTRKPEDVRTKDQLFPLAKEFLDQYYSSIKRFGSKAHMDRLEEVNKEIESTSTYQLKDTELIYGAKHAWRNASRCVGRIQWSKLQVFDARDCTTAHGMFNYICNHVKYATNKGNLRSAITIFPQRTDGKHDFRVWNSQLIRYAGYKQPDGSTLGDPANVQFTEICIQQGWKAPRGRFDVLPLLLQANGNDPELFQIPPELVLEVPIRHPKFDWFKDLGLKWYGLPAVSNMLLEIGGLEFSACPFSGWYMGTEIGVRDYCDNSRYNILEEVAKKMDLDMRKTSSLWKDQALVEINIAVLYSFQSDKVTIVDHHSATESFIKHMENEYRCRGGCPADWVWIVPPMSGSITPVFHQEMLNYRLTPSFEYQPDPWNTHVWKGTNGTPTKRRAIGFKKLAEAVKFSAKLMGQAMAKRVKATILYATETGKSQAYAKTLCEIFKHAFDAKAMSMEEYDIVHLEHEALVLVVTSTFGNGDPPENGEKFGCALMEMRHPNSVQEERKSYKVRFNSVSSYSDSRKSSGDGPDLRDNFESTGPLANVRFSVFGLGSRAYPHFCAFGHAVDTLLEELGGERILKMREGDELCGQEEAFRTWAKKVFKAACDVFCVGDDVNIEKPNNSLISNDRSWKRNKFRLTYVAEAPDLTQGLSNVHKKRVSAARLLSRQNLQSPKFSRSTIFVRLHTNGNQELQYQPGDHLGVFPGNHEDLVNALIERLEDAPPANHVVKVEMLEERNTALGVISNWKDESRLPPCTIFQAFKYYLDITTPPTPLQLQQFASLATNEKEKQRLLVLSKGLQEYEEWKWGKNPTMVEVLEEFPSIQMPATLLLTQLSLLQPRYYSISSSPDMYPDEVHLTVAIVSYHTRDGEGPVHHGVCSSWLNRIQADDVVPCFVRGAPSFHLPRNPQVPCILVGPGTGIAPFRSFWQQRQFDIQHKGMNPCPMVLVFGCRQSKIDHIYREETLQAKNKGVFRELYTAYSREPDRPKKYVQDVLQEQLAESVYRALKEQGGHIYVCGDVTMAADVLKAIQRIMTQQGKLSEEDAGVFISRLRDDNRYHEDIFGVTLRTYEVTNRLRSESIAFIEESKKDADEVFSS

As for `O=C(O)c1ccc(NCc2cc(Cl)cc(Cl)c2O)cc1O` [ZL006], the “PSD-95-nNOS complex level in the SDH” value in experiment [1] is given as “reversed the SNL-induced upregulation of PSD-95-nNOS interaction”. The “Antinociceptive effect on mechanical hyperalgesia during chronic use (tolerance)” value in experiment [2] is “decreased dramatically at d 7 and d 11, compared to d 1”. For the same compound, the “Antinociceptive effect on thermal hyperalgesia during chronic use (tolerance)” value in experiment [3] is “decreased dramatically at d 7 and d 11, compared to d 1”. Further, the “Effect on SNL-induced mechanical hyperalgesia” value in experiment [4] is “attenuated both mechanical and thermal hyperalgesia markedly in WT but not in nNOS^-/- mice”. In addition, the “Effect on SNL-induced thermal hyperalgesia” value in experiment [5] was “attenuated both mechanical and thermal hyperalgesia markedly in WT but not in nNOS^-/- mice”. Also, the mEPSCs result in experiment [6] was “did not affect SNL-induced increase in miniature excitatory postsynaptic currents (mEPSCs)”. In addition, in experiment [6] (vs vehicle), the “mIPSCs frequency and amplitude” value is given as “significantly lower than that in vehicle-treated rats”. In experiment [7], the “Analgesic tolerance when used chronically” value is on record as “cause obvious analgesic tolerance”.
